Measured values reported in ChEMBL document CHEMBL1909046, “DrugMatrix in vitro pharmacology data”.
*1 amine or outer side, *2 acyl side, *3 side chain or, on linkers, in order; H or OH if unused. Where a SMILES comes first, the peptide text is derived from it. Bridges are numbered along the chain shown (N, C = ends). Roman numbers before positions name the chains, in order. [ ]: non-standard residue; d: D form. Actinocin(1to9) = Cc1c2oc3c(C)ccc(C(=O)[*:2])c3nc-2c(C(=O)[*:1])c(N)c1=O; NMeV = CN[C@H](C(=O)O)C(C)C; Sar = CNCC(=O)O

How the values were obtained:
[1] = target: T1, 5-hydroxytryptamine receptor 2C (Homo sapiens, UniProt P28335); assay: DRUGMATRIX: Serotonin (5-Hydroxytryptamine) 5-HT2C radioligand binding (ligand: [3H] Mesulergine); format: cell membranes, CHO-K1, Membrane; conditions: Not Active = under 50% inhibition at 10 µM; for Ki: read-out: Ki
T1 sequence (P28335 whole entry): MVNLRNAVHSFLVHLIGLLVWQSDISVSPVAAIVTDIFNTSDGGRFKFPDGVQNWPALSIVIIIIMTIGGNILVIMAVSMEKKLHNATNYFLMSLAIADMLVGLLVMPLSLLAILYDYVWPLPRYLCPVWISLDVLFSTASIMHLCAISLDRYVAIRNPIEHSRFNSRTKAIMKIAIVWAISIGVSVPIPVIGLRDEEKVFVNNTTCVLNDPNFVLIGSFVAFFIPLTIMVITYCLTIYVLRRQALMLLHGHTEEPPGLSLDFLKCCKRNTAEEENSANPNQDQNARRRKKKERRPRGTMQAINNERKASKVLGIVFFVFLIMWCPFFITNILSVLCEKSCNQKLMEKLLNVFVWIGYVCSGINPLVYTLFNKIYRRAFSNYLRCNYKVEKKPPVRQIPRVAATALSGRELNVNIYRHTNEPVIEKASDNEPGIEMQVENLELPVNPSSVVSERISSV

[2] = target: C-C chemokine receptor type 5 (Homo sapiens, UniProt P51681); format: cell membranes, Membrane; conditions: hek293; also: in other assays of this panel Not Active means under 50% inhibition at 10 µM
[3] = target: T2, Amine oxidase [flavin-containing] A (Homo sapiens, UniProt P21397); assay: DRUGMATRIX: Monoamine Oxidase MAO-A enzyme inhibition (substrate: Kynuramine); design: species or system BTI-TN-5B1-4; conditions: bti-tn-5b1-4; Not Active = under 50% inhibition at 10 µM
T2 sequence (P21397 whole entry): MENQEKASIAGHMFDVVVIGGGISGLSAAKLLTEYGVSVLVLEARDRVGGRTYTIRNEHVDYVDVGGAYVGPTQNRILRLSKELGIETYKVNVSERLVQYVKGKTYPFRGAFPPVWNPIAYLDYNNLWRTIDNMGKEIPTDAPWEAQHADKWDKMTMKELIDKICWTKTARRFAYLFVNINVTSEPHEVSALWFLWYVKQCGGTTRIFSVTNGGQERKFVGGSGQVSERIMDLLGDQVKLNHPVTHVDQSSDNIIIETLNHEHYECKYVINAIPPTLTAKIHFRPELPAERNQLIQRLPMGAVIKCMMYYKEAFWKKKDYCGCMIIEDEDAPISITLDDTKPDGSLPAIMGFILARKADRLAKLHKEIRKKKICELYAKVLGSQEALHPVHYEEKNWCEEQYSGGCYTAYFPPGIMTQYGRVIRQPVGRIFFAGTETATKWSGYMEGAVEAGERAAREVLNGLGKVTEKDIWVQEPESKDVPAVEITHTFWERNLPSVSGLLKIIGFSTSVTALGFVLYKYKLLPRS

[4] = DRUGMATRIX: Purinergic P2X radioligand binding (ligand: [3H] alpha, beta-Methylene-ATP); format: cell membranes, Oryctolagus cuniculus, New Zealand albino, Urinary bladder, Membrane; conditions: Not Active = under 50% inhibition at 10 µM
[5] = target: T3, Muscarinic acetylcholine receptor M2 (Homo sapiens, UniProt P08172); format: cell membranes, CHO-K1, Membrane; conditions: cho-k1; also: in other assays of this panel Not Active means under 50% inhibition at 10 µM
T3 sequence (P08172 whole entry): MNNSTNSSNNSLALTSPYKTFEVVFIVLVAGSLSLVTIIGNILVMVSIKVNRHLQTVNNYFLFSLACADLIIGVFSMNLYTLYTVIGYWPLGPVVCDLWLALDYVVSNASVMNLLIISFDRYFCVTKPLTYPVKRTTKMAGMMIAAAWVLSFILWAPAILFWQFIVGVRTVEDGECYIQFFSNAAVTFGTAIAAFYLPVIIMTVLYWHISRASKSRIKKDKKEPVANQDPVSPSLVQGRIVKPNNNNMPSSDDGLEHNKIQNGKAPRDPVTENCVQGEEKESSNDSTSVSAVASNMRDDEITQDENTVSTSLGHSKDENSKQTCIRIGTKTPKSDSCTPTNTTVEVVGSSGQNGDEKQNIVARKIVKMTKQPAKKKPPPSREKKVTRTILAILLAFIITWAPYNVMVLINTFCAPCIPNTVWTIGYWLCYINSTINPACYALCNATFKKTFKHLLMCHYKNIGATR

[6] = target: Beta-3 adrenergic receptor (Homo sapiens, UniProt P13945); assay: DRUGMATRIX: Adrenergic beta3 radioligand binding (ligand: [125I] Cyanopindolol); format: cell membranes, HEK293, Membrane; conditions: hek293; Not Active = under 50% inhibition at 10 µM
[7] = target: Cytochrome P450 2C9 (Homo sapiens, UniProt P11712); conditions: bti-tn-5b1-4; also: in other assays of this panel Not Active means under 50% inhibition at 10 µM
Sequence of Cytochrome P450 2C9 (P11712 whole entry): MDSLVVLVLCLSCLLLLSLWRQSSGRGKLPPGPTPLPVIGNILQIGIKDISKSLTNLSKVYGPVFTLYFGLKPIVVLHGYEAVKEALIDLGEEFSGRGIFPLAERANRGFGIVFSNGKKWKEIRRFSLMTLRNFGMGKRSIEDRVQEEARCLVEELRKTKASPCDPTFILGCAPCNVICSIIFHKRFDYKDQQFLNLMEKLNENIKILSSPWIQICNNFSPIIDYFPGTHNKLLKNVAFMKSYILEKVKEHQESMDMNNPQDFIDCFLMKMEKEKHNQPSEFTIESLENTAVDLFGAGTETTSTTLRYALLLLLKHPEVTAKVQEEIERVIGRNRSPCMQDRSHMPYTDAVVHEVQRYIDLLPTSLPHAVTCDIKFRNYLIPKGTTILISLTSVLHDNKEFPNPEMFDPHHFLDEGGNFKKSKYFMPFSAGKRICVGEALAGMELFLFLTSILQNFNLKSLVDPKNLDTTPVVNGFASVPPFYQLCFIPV

Sequence of Beta-3 adrenergic receptor (P13945 whole entry): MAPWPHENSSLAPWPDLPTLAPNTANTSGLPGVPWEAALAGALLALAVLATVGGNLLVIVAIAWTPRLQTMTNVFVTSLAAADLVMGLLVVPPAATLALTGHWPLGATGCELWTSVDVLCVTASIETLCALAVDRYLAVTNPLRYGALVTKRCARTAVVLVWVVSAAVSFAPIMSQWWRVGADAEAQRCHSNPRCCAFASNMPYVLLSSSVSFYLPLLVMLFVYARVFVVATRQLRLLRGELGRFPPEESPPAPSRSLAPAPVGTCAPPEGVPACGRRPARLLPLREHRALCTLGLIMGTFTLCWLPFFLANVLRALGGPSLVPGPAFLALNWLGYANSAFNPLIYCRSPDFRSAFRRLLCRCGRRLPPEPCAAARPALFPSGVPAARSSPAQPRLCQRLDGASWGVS
Sequence of C-C chemokine receptor type 5 (P51681 whole entry): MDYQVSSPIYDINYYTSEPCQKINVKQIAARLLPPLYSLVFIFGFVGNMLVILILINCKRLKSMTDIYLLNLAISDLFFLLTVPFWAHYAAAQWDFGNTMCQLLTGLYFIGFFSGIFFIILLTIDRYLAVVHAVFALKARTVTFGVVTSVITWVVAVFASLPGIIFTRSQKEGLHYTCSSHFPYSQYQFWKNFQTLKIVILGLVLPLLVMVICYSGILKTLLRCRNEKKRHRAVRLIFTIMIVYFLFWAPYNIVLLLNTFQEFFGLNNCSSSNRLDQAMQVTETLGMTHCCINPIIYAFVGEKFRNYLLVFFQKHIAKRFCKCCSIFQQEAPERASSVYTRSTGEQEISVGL

Row | SMILES | IC50 ([1]; cho-k1) | IC50 [2] | IC50 [3] | IC50 [4] | Ki [4] | IC50 [5] | IC50 [6] | IC50 [7] | Ki [7] | IC50 ([1]; read-out: IC50) | Ki [1]
1 | Cc1c2oc3c(C)ccc(C(=O)N[C@@H]4C(=O)N[C@H](C(C)C)C(=O)N5CCC[C@H]5C(=O)N(C)CC(=O)N(C)[C@@H](C(C)C)C(=O)O[C@@H]4C)c3nc-2c(C(=O)N[C@@H]2C(=O)N[C@H](C(C)C)C(=O)N3CCC[C@H]3C(=O)N(C)CC(=O)N(C)[C@@H](C(C)C)C(=O)O[C@@H]2C)c(N)c1=O [DACTINOMYCIN] (I: T[dV]P[Sar][NMeV] / II: T[dV]P[Sar][NMeV]; ester I:1-I:C, II:1-II:C; linker I:N-II:N via Actinocin(1to9)) | Not Active | Not Active | Not Active | Not Active | Not Active | Not Active | Not Active | Not Active | Not Active | – | –
2 | Cc1c(O)c(=O)ccn1C [DEFERIPRONE] | Not Active | Not Active | Not Active | Not Active | Not Active | Not Active | Not Active | Not Active | Not Active | – | –
3 | CNCCCN1c2ccccc2CCc2ccccc21 [DESIPRAMINE] | Not Active | Not Active | Not Active | Not Active | Not Active | Not Active | Not Active | Not Active | Not Active | – | –
4 | C[C@H]1O[C@@H](O[C@H]2[C@@H](O)C[C@H](O[C@H]3[C@@H](O)C[C@H](O[C@H]4CC[C@@]5(C)[C@H](CC[C@@H]6[C@@H]5C[C@@H](O)[C@]5(C)[C@@H](C7=CC(=O)OC7)CC[C@]65O)C4)O[C@@H]3C)O[C@@H]2C)C[C@H](O)[C@@H]1O [DIGOXIN] | Not Active | Not Active | Not Active | Not Active | Not Active | Not Active | Not Active | Not Active | Not Active | – | –
5 | CC(=O)O[C@@]12CO[C@@H]1C[C@H](O)[C@@]1(C)C(=O)[C@H](O)C3=C(C)[C@@H](OC(=O)[C@H](O)[C@@H](NC(=O)OC(C)(C)C)c4ccccc4)C[C@@](O)([C@@H](OC(=O)c4ccccc4)[C@H]21)C3(C)C.O.O.O [DOCETAXEL] | Not Active | Not Active | Not Active | Not Active | Not Active | Not Active | Not Active | Not Active | Not Active | – | –
6 | C[C@H]1c2cccc(O)c2C(=O)C2=C(O)[C@]3(O)C(=O)C(C(N)=O)=C(O)[C@@H](N(C)C)[C@@H]3[C@@H](O)[C@@H]21.O [DOXYCYCLINE] | Not Active | Not Active | Not Active | Not Active | Not Active | Not Active | Not Active | Not Active | Not Active | – | –
7 | O=C(CCCN1CC=C(n2c(=O)[nH]c3ccccc32)CC1)c1ccc(F)cc1 [DROPERIDOL] | – | Not Active | Not Active | Not Active | Not Active | Not Active | Not Active | Not Active | Not Active | 454 nM | 238 nM
8 | CC(C)[C@H]1C(=O)N2CCC[C@H]2[C@]2(O)O[C@](NC(=O)[C@@H]3C=C4c5cccc6[nH]cc(c56)C[C@H]4N(C)C3)(C(C)C)C(=O)N12 [ERGOCORNINE] | – | Not Active | Not Active | Not Active | Not Active | Not Active | Not Active | Not Active | Not Active | 104 nM | 55 nM
9 | OC(Cn1cncn1)(Cn1cncn1)c1ccc(F)cc1F [FLUCONAZOLE] | Not Active | Not Active | Not Active | Not Active | Not Active | Not Active | Not Active | Not Active | Not Active | – | –
10 | CC(C)C(=O)Nc1ccc([N+](=O)[O-])c(C(F)(F)F)c1 [FLUTAMIDE] | Not Active | Not Active | Not Active | Not Active | Not Active | Not Active | Not Active | Not Active | Not Active | – | –
11 | CC1(C)O[C@@H]2C[C@H]3[C@@H]4CCC5=CC(=O)CC[C@]5(C)[C@@]4(F)[C@@H](O)C[C@]3(C)[C@]2(C(=O)CCl)O1 [HALCINONIDE] | Not Active | Not Active | Not Active | Not Active | Not Active | Not Active | Not Active | Not Active | Not Active | – | –
12 | O=c1[nH]c(=O)n([C@H]2C[C@H](O)[C@@H](CO)O2)cc1I [IDOXURIDINE] | Not Active | Not Active | Not Active | Not Active | Not Active | Not Active | Not Active | Not Active | Not Active | – | –
13 | CC1Cc2ccccc2N1NC(=O)c1ccc(Cl)c(S(N)(=O)=O)c1 (stereo not drawn) [INDAPAMIDE] | Not Active | Not Active | Not Active | Not Active | Not Active | Not Active | Not Active | Not Active | Not Active | – | –
14 | Nc1nc(N)nc(-c2cc(Cl)ccc2Cl)n1.O=C(O)/C=C\C(=O)O [IRSOGLADINE MALEATE] | Not Active | Not Active | Not Active | Not Active | Not Active | Not Active | Not Active | Not Active | Not Active | – | –
15 | CCC(C)n1ncn(-c2ccc(N3CCN(c4ccc(OCC5COC(Cn6cncn6)(c6ccc(Cl)cc6Cl)O5)cc4)CC3)cc2)c1=O (stereo not drawn) [ITRACONAZOLE] | Not Active | Not Active | Not Active | Not Active | Not Active | Not Active | Not Active | Not Active | Not Active | – | –
16 | CCCCN1CCCC[C@H]1C(=O)Nc1c(C)cccc1C [LEVOBUPIVACAINE] | Not Active | Not Active | Not Active | Not Active | Not Active | Not Active | Not Active | Not Active | Not Active | – | –
17 | Sc1ncnc2nc[nH]c12 [MERCAPTOPURINE ANHYDROUS] | Not Active | Not Active | Not Active | Not Active | Not Active | Not Active | Not Active | Not Active | Not Active | – | –
18 | C[C@](N)(Cc1ccc(O)c(O)c1)C(=O)O [METHYLDOPA] | Not Active | Not Active | Not Active | Not Active | Not Active | Not Active | Not Active | Not Active | Not Active | – | –
19 | C[C@]12CCC(=O)C=C1CC[C@@H]1[C@@H]2CC[C@@]2(C)[C@H]1CC[C@]2(C)O [METHYLTESTOSTERONE] | Not Active | Not Active | Not Active | Not Active | Not Active | Not Active | Not Active | Not Active | Not Active | – | –
